In patent publication US20140249135A1, “PIM KINASE INHIBITORS AND METHODS OF THEIR USE” (NOVARTIS AG, priority 2007, published 2014):
pIC50: −log10 of the molar value. Where two headings read alike, the source gives them in different places.

What was measured:
[1] = target: Pim1 kinase (Homo sapiens, UniProt P11309); assay: Pim1 ATP depletion assay; format: biochemical; conditions: Pim1 ATP depletion assay; for pIC50: read-out: PIM1 IC50; for IC50: read-out: IC50 (μM) PIM1;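 on all read-outs here: Luciferase-luciferin luminescence readout of residual ATP after PIM1 transfers phosphate to a peptide substrate, 40 µM ATP added, reaction run to roughly half ATP consumption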
[2] = target: KDR kinase (Homo sapiens, UniProt P35968); assay: KDR AlphaScreen assay; conditions: KDR IC50 (μM)
[3] = target: Pim3 kinase (Homo sapiens, UniProt Q86V86); assay: Pim3 ATP depletion assay; format: biochemical; conditions: for pIC50: read-out: PIM3 IC50; for IC50: read-out: IC50 (μM) PIM3
[4] = target: Pim2 kinase (Homo sapiens, UniProt Q9P1W9); assay: Pim2 ATP depletion assay; format: biochemical; conditions: for pIC50: read-out: PIM2 IC50; for IC50: read-out: IC50 (μM) PIM2;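 on all read-outs here: Luciferase-based luminescent readout of ATP remaining after PIM2 phosphorylates a BAD peptide, final 5 nM enzyme, 4 µM ATP, 10 µM peptide, 2.5% DMSO, run to roughly half ATP consumption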
[5] = target: T1, human full length PKCE enzyme (Homo sapiens, UniProt Q02156); assay: In vitro PKCE assay; format: biochemical; conditions: 10 nM enzyme, 40 uM peptide substrate, 20 uM ATP, KinaseGlo Plus readout; read-out: PKCε IC50
T1 construct: human full length PKCE enzyme purchased from InVitrogen; purchased InVitrogen
T1 sequence (Q02156 1-737): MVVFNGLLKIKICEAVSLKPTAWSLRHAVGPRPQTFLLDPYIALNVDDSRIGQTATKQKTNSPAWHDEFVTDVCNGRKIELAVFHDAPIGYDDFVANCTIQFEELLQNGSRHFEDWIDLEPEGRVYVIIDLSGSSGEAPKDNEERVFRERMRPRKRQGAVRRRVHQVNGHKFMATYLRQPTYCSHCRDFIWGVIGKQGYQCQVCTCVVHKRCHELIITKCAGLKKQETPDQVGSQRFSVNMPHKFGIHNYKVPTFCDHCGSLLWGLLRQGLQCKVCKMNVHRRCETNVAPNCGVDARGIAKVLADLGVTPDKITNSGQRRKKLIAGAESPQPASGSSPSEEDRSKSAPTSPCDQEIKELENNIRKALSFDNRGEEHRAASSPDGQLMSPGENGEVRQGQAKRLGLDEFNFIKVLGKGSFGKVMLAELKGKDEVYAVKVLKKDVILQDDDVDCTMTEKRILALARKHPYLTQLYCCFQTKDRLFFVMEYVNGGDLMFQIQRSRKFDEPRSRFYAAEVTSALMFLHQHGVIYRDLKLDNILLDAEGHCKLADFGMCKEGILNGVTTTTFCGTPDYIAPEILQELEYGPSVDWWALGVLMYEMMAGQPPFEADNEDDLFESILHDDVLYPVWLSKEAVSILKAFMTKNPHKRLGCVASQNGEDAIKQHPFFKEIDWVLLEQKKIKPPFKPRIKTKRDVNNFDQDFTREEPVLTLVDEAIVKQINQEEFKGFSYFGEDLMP

Sequence of KDR kinase (P35968 20-1356): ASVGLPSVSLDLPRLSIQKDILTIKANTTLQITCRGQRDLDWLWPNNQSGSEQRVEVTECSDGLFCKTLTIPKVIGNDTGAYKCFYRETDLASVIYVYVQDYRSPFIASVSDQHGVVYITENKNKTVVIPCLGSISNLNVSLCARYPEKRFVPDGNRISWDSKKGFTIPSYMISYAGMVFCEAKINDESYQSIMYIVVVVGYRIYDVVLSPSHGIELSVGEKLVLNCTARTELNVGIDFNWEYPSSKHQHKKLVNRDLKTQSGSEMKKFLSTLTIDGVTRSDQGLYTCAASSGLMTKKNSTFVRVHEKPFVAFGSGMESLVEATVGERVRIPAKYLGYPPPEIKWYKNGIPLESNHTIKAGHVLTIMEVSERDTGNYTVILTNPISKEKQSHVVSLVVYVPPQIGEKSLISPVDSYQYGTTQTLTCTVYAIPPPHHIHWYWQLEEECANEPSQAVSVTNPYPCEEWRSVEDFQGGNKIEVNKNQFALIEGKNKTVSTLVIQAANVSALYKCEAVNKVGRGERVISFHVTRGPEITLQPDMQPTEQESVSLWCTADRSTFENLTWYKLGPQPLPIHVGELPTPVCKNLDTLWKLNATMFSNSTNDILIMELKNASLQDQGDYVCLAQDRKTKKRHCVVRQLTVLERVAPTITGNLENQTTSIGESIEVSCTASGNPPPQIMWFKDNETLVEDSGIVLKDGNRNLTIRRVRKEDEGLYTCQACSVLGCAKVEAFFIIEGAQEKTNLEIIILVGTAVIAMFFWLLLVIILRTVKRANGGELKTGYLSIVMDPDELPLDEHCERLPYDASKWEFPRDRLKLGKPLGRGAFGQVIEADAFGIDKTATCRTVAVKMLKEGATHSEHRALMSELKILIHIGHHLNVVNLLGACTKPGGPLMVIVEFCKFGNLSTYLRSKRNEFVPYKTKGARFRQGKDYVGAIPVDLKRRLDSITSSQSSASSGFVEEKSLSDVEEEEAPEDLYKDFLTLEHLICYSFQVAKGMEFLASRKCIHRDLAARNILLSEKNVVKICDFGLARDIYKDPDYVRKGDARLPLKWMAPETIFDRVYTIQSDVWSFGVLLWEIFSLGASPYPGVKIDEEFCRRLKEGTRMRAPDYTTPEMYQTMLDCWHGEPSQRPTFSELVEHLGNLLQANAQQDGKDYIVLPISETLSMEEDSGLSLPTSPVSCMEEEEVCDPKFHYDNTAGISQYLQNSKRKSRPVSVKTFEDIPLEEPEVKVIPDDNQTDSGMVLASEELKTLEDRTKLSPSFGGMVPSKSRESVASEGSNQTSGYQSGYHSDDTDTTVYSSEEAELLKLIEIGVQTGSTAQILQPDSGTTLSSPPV
Sequence of Pim1 kinase (P11309 whole entry): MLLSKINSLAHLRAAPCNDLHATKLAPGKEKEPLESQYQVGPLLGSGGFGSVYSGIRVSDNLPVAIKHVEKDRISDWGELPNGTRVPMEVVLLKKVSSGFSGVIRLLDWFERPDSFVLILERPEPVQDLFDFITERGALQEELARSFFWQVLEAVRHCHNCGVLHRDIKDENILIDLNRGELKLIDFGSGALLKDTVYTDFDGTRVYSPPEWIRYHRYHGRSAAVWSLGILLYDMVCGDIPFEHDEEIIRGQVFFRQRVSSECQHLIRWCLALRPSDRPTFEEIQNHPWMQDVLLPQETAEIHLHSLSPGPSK
Sequence of Pim2 kinase (Q9P1W9 whole entry): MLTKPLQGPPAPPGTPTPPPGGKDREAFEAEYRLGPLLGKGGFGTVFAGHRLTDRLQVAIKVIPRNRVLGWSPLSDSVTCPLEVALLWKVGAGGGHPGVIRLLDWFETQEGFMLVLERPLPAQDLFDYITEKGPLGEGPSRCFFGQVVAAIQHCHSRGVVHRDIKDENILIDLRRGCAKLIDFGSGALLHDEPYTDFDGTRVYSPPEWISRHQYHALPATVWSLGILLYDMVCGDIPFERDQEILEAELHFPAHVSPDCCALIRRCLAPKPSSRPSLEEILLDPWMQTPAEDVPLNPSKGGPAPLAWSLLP

Row | Structure (SMILES) | pIC50 [1] | IC50 [2] [µM] | pIC50 [3] | pIC50 [4] | IC50 [1] [µM] | IC50 [3] [µM] | IC50 [4] [µM] | pIC50 [5]
1 | Nc1ccc(-c2cncc(OCC3CC3)n2)nc1C(=O)Nc1cnccc1N1CCC[C@H](N)C1 [Example 521, 3-Amino-6-(6-cyclopropylmethoxy-pyrazin-2-yl)-pyridine-2-carboxylic acid (3-amino-3,4,5,6-tetrahydro-2H-[1,4′]bipyridinyl-3′-yl)-amide] | – | 1 to 10 | – | – | < 1 | < 1 | < 1 | –
2 | CSc1nc(N)cc(-c2ccncc2NC(=O)c2nc(-c3cc(C(=O)N(C)C)ccc3F)ccc2N)n1 [Example 535, 3-Amino-6-(5-dimethylcarbamoyl-2-fluoro-phenyl)-pyridine-2-carboxylic acid [4-(6-amino-2-methylsulfanyl-pyrimidin-4-yl)-pyridin-3-yl]-amide] | > 6.00 | 10 to 25 | > 6.00 | > 6.00 | – | – | – | –
3 | Cc1cnc(O)cc1-c1ccncc1NC(=O)c1nc(-c2c(F)cccc2F)ccc1N [Example 612, 3-amino-6-(2,6-difluorophenyl)-N-(2′-hydroxy-5′-methyl-4,4′-bipyridin-3-yl)pyridine-2-carboxamide] | > 6.00 | 1 to 10 | > 6.00 | 5.00 to 6.00 | – | – | – | –
4 | CSc1nc(N)cc(-c2ccncc2NC(=O)c2nc(-c3c(F)cccc3F)ccc2N)n1 [Example 275, 3-Amino-6-(2,6-difluoro-phenyl)-pyridine-2-carboxylic acid [4-(6-amino-2-methylsulfanyl-pyrimidin-4-yl)-pyridin-3-yl]-amide] | – | 10 to 25 | – | – | < 1 | < 1 | < 1 | –
5 | CCCOc1ccc(F)c(-c2ncc(N)c(C(=O)Nc3cnccc3N3CCC[C@H](N)C3)n2)c1F [Example 545, 5-Amino-2-(2,6-difluoro-3-propoxy-phenyl)-pyrimidine-4-carboxylic acid (3-amino-3,4,5,6-tetrahydro-2H-[1,4′]bipyridinyl-3′-yl)-amide] | > 6.00 | 10 to 25 | > 6.00 | > 6.00 | – | – | – | –
6 | Nc1ccc(-c2cnc(N)c(OCC(F)(F)F)n2)nc1C(=O)Nc1cnccc1N1CCC[C@H](N)C1 [Example 519, 3-Amino-6-[5-amino-6-(2,2,2-trifluoro-ethoxy)-pyrazin-2-yl]-pyridine-2-carboxylic acid (3-amino-3,4,5,6-tetrahydro-2H-[1,4′]bipyridinyl-3′-yl)-amide] | – | 10 to 25 | – | – | < 1 | < 1 | < 1 | –
7 | Nc1ccc(-c2ccccc2F)nc1C(=O)Nc1cnccc1-c1ccnc(O)c1 [Example 614, 3-amino-6-(2-fluorophenyl)-N-(2′-hydroxy-4,4′-bipyridin-3-yl)pyridine-2-carboxamide] | > 6.00 | 1 to 10 | > 6.00 | > 6.00 | – | – | – | –
8 | CCCOc1ccc(F)c(-c2ncc(N)c(C(=O)Nc3cnccc3N3CCC[C@H](N)C3)n2)c1 [Example 550, 5-Amino-2-(2-fluoro-5-propoxy-phenyl)-pyrimidine-4-carboxylic acid (3-amino-3,4,5,6-tetrahydro-2H-[1,4′]bipyridinyl-3′-yl)-amide] | > 6.00 | 10 to 25 | > 6.00 | > 6.00 | – | – | – | –
9 | Nc1ncc(-c2ccccc2C(F)(F)F)nc1C(=O)Nc1[nH]c(=O)ncc1N1CCCC(N)C1 (stereo not shown) [Example 404, 3-amino-6-(2-trifluoromethyl-phenyl)-pyrazine-2-carboxylic acid [5-(3-amino-piperidin-1-yl)-2-oxo-2,3-dihydro-pyrimidin-4-yl]-amide] | – | – | – | – | < 1 | < 1 | < 1 | 5.00 to 6.00
10 | Nc1nccnc1C(=O)Nc1[nH]c(=O)ncc1-c1nccs1 [Example 138, 3-amino-N-[2-oxo-5-(1,3-thiazol-2-yl)-2,3-dihydro-pyrimidin-4-yl]pyrazine-2-carboxamide] | – | – | – | – | < 1 | < 1 | < 1 | < 4.60
11 | Cc1cnc(N)c(C(=O)Nc2cnccc2N2CCCC(N)C2)n1 (stereo not shown) [Example 371, 3-amino-6-methyl-pyrazine-2-carboxylic acid (3-amino-3,4,5,6-tetrahydro-2H-[1,4′]bi-pyridinyl-3′-yl)-amide] | – | – | – | – | < 1 | < 1 | < 1 | 5.00 to 6.00

Results, then the molecule that gave them:

Row | pIC50 [1] | IC50 [2] [µM] | pIC50 [3] | pIC50 [4] | IC50 [1] [µM] | IC50 [3] [µM] | IC50 [4] [µM] | pIC50 [5] | Structure (SMILES)
12 | > 6.00 | 10 to 25 | > 6.00 | > 6.00 | – | – | – | – | COc1ccc(F)c(-c2ncc(N)c(C(=O)Nc3cnccc3N3CCC[C@H](N)C3)n2)c1 [Example 549, 5-Amino-2-(2-fluoro-5-methoxy-phenyl)-pyrimidine-4-carboxylic acid (3-amino-3,4,5,6-tetrahydro-2H-[1,4′]bipyridinyl-3′-yl)-amide]
13 | – | 10 to 25 | – | – | < 1 | < 1 | < 1 | – | N[C@H]1CCCN(c2ccncc2NC(=O)c2cccc(-c3ccccc3F)n2)C1 [Example 455, 6-(2-Fluoro-phenyl)-pyridine-2-carboxylic acid (3-amino-3,4,5,6-tetrahydro-2H-[1,4′]bipyridinyl-3′-yl)-amide]
14 | > 6.00 | 10 to 25 | > 6.00 | > 6.00 | – | – | – | – | Nc1cnc(-c2ccc(Cl)cc2F)nc1C(=O)Nc1cnccc1N1CCC[C@H](N)C1 [Example 547, 5-Amino-2-(4-chloro-2-fluoro-phenyl)-pyrimidine-4-carboxylic acid (3-amino-3,4,5,6-tetrahydro-2H-[1,4′]bipyridinyl-3′-yl)-amide]
15 | > 6.00 | 10 to 25 | > 6.00 | > 6.00 | – | – | – | – | Nc1cnc(-c2ccccc2)nc1C(=O)Nc1cnccc1N1CCC[C@H](O)C1 [Example 650, 5-Amino-2-phenyl-pyrimidine-4-carboxylic acid (3-hydroxy-3,4,5,6-tetrahydro-2H-[1,4′]bi-pyridinyl-3′-yl)-amide]
16 | > 6.00 | 10 to 25 | > 6.00 | > 6.00 | – | – | – | – | CC(=O)Nc1cccc(-c2ncc(N)c(C(=O)Nc3cnccc3N3CCC[C@H](N)C3)n2)c1 [Example 544, 2-(3-Acetylamino-phenyl)-5-amino-pyrimidine-4-carboxylic acid (3-amino-3,4,5,6-tetrahydro-2H-[1,4′]bipyridinyl-3′-yl)-amide]
17 | – | 10 to 25 | – | – | < 1 | < 1 | < 1 | – | Nc1cnc(-c2ccccc2)nc1C(=O)Nc1cnccc1N1CCC[C@H](N)C1 [Example 265, 5-Amino-2-phenyl-pyrimidine-4-carboxylic acid (3-amino-3,4,5,6-tetrahydro-2H-[1,4′]bipyridinyl-3′-yl)-amide]
18 | > 6.00 | 10 to 25 | > 6.00 | > 6.00 | – | – | – | – | Nc1cnc(-c2ccccc2F)nc1C(=O)Nc1cnccc1N1CCC[C@H](O)C1 [Example 649, 5-Amino-2-(2-fluoro-phenyl)-pyrimidine-4-carboxylic acid (3-hydroxy-3,4,5,6-tetrahydro-2H-[1,4′]bipyridinyl-3′-yl)-amide]
19 | – | – | – | – | < 1 | < 1 | < 1 | > 6.00 | Cc1ccccc1-c1cnc(N)c(C(=O)Nc2cnccc2N2CCCC(N)C2)n1 (stereo not shown) [Example 351, 3-amino-6-o-tolyl-pyrazine-2-carboxylic acid (3-amino-3,4,5,6-tetrahydro-2H-[1,4′]bi-pyridinyl-3′-yl)-amide]
